{"source": "patent US11090292B2", "about": "“Compositions and methods of use of an inappetance-controlling compound” (Aratana Therapeutics, Inc., priority 2012, dated 2021)", "key": {"[1]": {"test": "Example 12: food consumption", "type": "in vivo, cats", "settings": "IV 0.75 mg/kg or oral 3 mg/kg, short treatment", "procedure": "Similar to some of the other pharmacokinetic analyses conducted in dogs and cats, an additional pharmacokinetic study was conducted in cats to assess capromorelin formulations that allow sufficient drug to circulate to produce appetite stimulation and to define the capromorelin pharmacokinetic profile in cats. Briefly, twelve cats were randomized into Group 1 (six cats) and Group 2 (six cats). Group 1 received an intravenous formulation that included 0.75 mg/kg of capromorelin dissolved in sterile water and Group 2 received a previously tested formulation via oral gavage. Food consumption was determined daily for all cats. Specifically, animals were offered feed at approximately 11:00 AM, with the removal of feed at approximately 3:00 PM. Upon removal of feed, the amount consumed was calculated."}, "[2]": {"test": "Example 13: serum capromorelin and pharmacokinetics", "type": "in vivo, cats with compromised kidney function", "procedure": "The following study was undertaken to assess multiple points. First, the following experiments were conducted to determine if a formulation of capromorelin, when administered either intravenously or subcutaneously, can stimulate appetite in cats with compromised kidney function. Second, the following experiments were conducted to assess the pharmacokinetic profile of capromorelin in the serum of cats with compromised kidney function. Finally, the following experiments were conducted to determine if capromorelin accumulates in the serum after 14 days of treatment that is subcutaneously administered. Sixteen cats with compromised kidney function were acclimatized for the following study. Animals assigned to Group 1 (n=6) received an intravenous administration of a capromorelin formulation (i.e., capromorelin in sterile water) at a dose of 0.75 mg/kg on Day 0 of the experiment. Animals assigned to Group 2 (n=6) received a subcutaneous administration of a capromorelin formulation (2.1% w/v capromorelin, 1% w/v benzyl alcohol, and citrate buffer) daily for 14 days at a dose of 2 mg/kg. Animals assigned to Group 3 (n=4) served as untreated controls. During the study, blood samples were taken from the Group 1 animals at time points 0 (pre-administration), 5 minutes, 10 minutes, 30 minutes, 1 h, 2 h, 4 h, 6 h, 8 h, and 12 h post administration on Day 0. Blood samples were taken from the Group 2 animals at time points 0 (pre-administration), 15 minutes, 30 minutes, 45 minutes, 1 h, 2 h, 4 h, 6 h, 8 h, and 12 h post administration on Day 0 and time points 0, 30 minutes, 1 h, 2 h, 4 h, and 8 h post administration on Day 13. In addition, body weights were collected on study days −7, −1, and 13 (for Groups 2 and 3 only). Diet consumption was also monitored on study days −7 until day 13 for the animals in Groups 2 and 3 only. Referring to FIGS. 116 and 118, the pharmacokinetics of subcutaneously administered capromorelin were also determined. […] In addition, the mean fraction of the dose absorbed was determined by dividing the mean area under the curve (AUC)/dose of the animals in Group 2, which was divided by AUC/dose of the animals in Group 1. In this case, the mean fraction of the dose (F) absorbed is 1.37."}, "[3]": {"settings": "Group 1, intravenous 0.75 mg/kg, Day 0"}, "[4]": {"settings": "Group 2, subcutaneous 2 mg/kg daily, Day 13"}, "[5]": {"settings": "Group 2, subcutaneous 2 mg/kg, Day 0"}}, "data": [{"smiles": "CN1N=C2CCN(C(=O)[C@@H](COCc3ccccc3)NC(=O)C(C)(C)N)C[C@@]2(Cc2ccccc2)C1=O.O=C(O)C(O)C(O)C(=O)O", "note": "[capromorelin]", "values": [{"measurement": "observed food consumption", "setting": "[1]", "result": "did not reveal any significant increases in food consumption"}, {"measurement": "serum concentration of capromorelin at the spike", "setting": "[2]; [3]", "result": "about 397 ng/mL"}, {"measurement": "time post-administration of initial spike of serum capromorelin", "setting": "[2]; [3]", "result": "about 5 minutes"}, {"measurement": "mean absorption time", "setting": "[2]; Group 2, subcutaneous 2 mg/kg", "result": 0.4, "unit": "h"}, {"measurement": "accumulation in the serum after 14 days of treatment", "setting": "[2]; Group 2, subcutaneous 2 mg/kg daily", "result": "does not accumulate"}, {"measurement": "serum concentration of capromorelin at the spike", "setting": "[2]; [4]", "result": "about 950 ng/mL"}, {"measurement": "time post administration of spike in serum capromorelin", "setting": "[2]; [4]", "result": 30, "unit": "min"}, {"measurement": "serum concentration of capromorelin at the spike", "setting": "[2]; [5]", "result": "about 833 ng/mL"}, {"measurement": "time post-administration of initial spike of serum capromorelin", "setting": "[2]; [5]", "result": "about 15 minutes"}, {"measurement": "Cmax", "setting": "[2]; cat, serum, sc, Group 2, subcutaneous 2 mg/kg, read-out: geometric Cmax", "result": 893, "unit": "ng/mL"}, {"measurement": "clearance", "setting": "[2]; cat, serum, Group 1, intravenous 0.75 mg/kg, several of the test animals", "result": 20, "unit": "mL/min/kg"}, {"measurement": "half-life", "setting": "[2]; cat, serum, Group 1, intravenous 0.75 mg/kg, read-out: terminal half-life", "result": "40.2 to 54", "unit": "min"}, {"measurement": "mean fraction of the dose (F) absorbed", "setting": "[2]; subcutaneous AUC/dose (Group 2) divided by intravenous AUC/dose (Group 1)", "result": 1.37}]}]}
